Experimental data: patent publication US20140088000A1, “Leptin Rescues Neurons from Alzheimer's Disease Related Pathways Triggered by Lipid Burden” (Neurotez, Inc., priority 2012, published 2014)

What was measured:
[1] = system: tau; assay: Phospho-tau (pThr231, pSer396) and total tau ELISA in RA-SY5Y lysates; type: cell-based, human; conditions: 6 h, FIG. 3; for effect of lipid insult on tau phosphorylation (pTau231, pTau396): no Leptin, normalized to total tau
Method: (§1) RA-SY5Y were treated with Leptin (100 ng/ml) in the presence of ceramide (25 μM), cholesterol (27.5 μg/mL), oleic acid (30 μg/mL) or vehicle (MβCD—675 μg/mL; or DMSO—0.125%) for 6 h, and then harvested by scraping. Preparation of whole cell lysates from cell pellets was performed as described previously (32).
Aβ(1-40) levels in cell culture media from SY5YAPP751 cells treated for 18 h with the aforementioned metabolic insults in the presence or absence of Leptin, were determined using the Human βAmyloid 1-40 ELISA kit (Invitrogen; Carlsbad, Calif.), and phospho- and total tau levels in RASY5Y lysates were determined using the Human Tau pSer396, pThr231 and Total Tau ELISA kits (Invitrogen) according to manufacturer's specific instructions. Aβ(1-40), phosho- and total tau levels were calculated from a standard curve developed with OD at 450 nm using 8 serial dilutions of known concentration.
Metabolic stress has been linked to the activation of AD pathological pathways, with lipids known to play an important role (21-23). We therefore investigated the extent to which lipids can induce hyperphosphorylation of tau (FIG. 3) and AP production (FIG. 4) in neuronal cells, and determined whether Leptin could prevent these effects. Utilizing similar lipid doses as previous experiments, RA-SY5Y were treated for 6 h with Leptin (100 ng/mL) or control in the presence or absence of ceramide, cholesterol or oleic acid, and phosphorylation of tau at two different epitopes, pTau231 (FIG. 3A) or pTau396 (FIG. 3B), as well as total tau measured by ELISA.

[2] = system: AMP-activated protein kinase (AMPK); assay: AMPK activity assay in lysates of treated RA-SY5Y cells (CycLex kit, Compound C-sensitive kinase activity); type: cell-based, human; conditions: 6 h, FIG. 2A
Method: as §1
AMPK activity in RA-SY5Y cell lysates was determined using the CycLex AMPK Kinase Assay Kit (MBL International; Woburn, Mass.), as previously described (33, 34). Briefly, “relative AMPK activity”, hereafter referred to as “AMPK activity”, is defined as Compound C-sensitive protein kinase activity in cell lysates. […] Lysates were incubated in the presence or absence of 10 μM Compound C, and protein kinase activity determined by measuring phosphorylation of the Insulin Receptor Substrate-I (IRS-1) through immunoassay and conversion of a chromogenic substrate at an absorbance of 450 nm (Ai50). […]
We have previously shown that Leptin regulates AD pathways via activation of the cellular energy sensors, AMP-activated protein kinase (AMPK) and the sirtuins (SIRT) in neuronal cells (35, 36). To this end, we determined whether Leptin has the ability to attenuate these effects on cellular energetics in an acute model of metabolic stress (FIG. 2). […]

[3] = mice having mutations on the ob gene, administration of leptin; cited from earlier work
[4] = system: sirtuins (SIRT); assay: SIRT (total sirtuin) activity assay in lysates of treated RA-SY5Y cells (nicotinamide-sensitive deacetylase activity); type: cell-based, human; conditions: Leptin 100 ng/mL, 6 h, with ceramide, cholesterol or oleic acid, FIG. 2B
Method: as §1
“Total sirtuin”, hereafter termed “SIRT’, activity in cell lysates was determined using the HDAC Fluorimetric Cellular Activity Assay Kit (Enzo Life Sciences; Plymouth Meeting, Pa.), according to manufacturer's specified guidelines. Briefly, SIRT activity is defined as nicotinamide-sensitive deacetylase (class III HDAC) activity in cell lysates. 5 mM nicotinamide was identified by the manufacturer as a dose in which there was no further reduction in deacetylase activity upon increasing concentration. RA-SY5Y cell lysates were incubated in the presence or absence of 5 mM nicotinamide, and SIRT activity determined by adding the Flour de Lys Substrate for deacetylation followed by exposure to the Fluor de Lys Developer to generate a fluorescent signal for detection using a fluorimeter (EX−350-380 nm/Em440-460 nm). Normalized SIRT activity was measured in units of fluorescence intensity (Fi) and defined as: (Filysate−Filysate+nicotinamide)/μg proteinlysate. […]

[5] = system: RA-SY5Y cells; assay: Cell viability assay (Cell-Titer Blue) during lipid/metabolic insult; type: cell-based, human
Method: The human neuroblastoma cell line, SH-SY5Y, was purchased from ATCC. Cell culture was performed according to manufacturer's specific guidelines. Cells were propagated in MEM containing 10% FBS. Neuronal differentiation was performed as described previously (32).
RA-SY5Y, at 2×10^4 cells/well, were seeded in 96-well microplates and treated for 48 h with a range of concentrations of MβCD, DMSO, ceramide, cholesterol or oleic acid to determine effective doses for 50-70% viability (data not shown), or in the presence of a range of concentrations of Leptin to determine effective doses to prevent cell death. Viability was assessed using the Cell-Titer Blue Viability Assay (Promega) by adding 20 μL of the reagent to each well for 4 h, and plates read by a microplate reader with fluorescence capabilities at Ex530-570 nm/Em580-620 nm. Viability was determined using a standard curve of known cell number and plotted as a percent of non-treated or vehicle control.
Doses of the lipids which decreased neuronal viability by 25-50% (Ceramide—25 μM; Cholesterol—27.5 μg/mL and Oleic Acid—30 μg/mL) after 18 h treatment (data not shown) were used to determine whether co-treatment with Leptin, an important modulator of lipid homeostasis, could attenuate the toxic effects of the insults (FIG. 1). RA-SY 5Y were treated for 18 h with either a low (10 ng/mL; gray bars) or moderate (100 ng/mL; black bars) dose of Leptin or control (white bars) in the presence or absence of ceramide, cholesterol or oleic acid, and cell viability measured. All lipid insults induced a significant (p<0.05) decrease in cell viability in the range of 35±15% when treated with control alone.

[6] = system: Aβ; conditions: neurons; cited from earlier work
[7] = transgenic model of AD; cited from earlier work
[8] = system: Aβ(1-40); assay: Extracellular Aβ(1-40) ELISA in culture media of SY5Y cells stably over-expressing human APP751; type: cell-based; conditions: Leptin 100 ng/mL, 18 h, SY5Y APP751, with ceramide, cholesterol or oleic acid; FIG. 4
Method: To generate SY5Y stably over-expressing amyloid precursor protein (APP), cells were transfected with a mammalian expression vector encoding the 751 amino acid isoform of human APP (APP751—Accession #NM 201413) (Origene Technologies; Rockville, Md.) using the FuOENE HD transfection reagent, according to manufacturer's specific instructions (Promega; Madison, Wis.). Briefly, cells were transiently transfected with APP751 or vehicle for 48 h and then switched into selection medium containing a concentration range of the antibiotic 0418 (100-600 μg/mL) to determine the optimal dose for stable selection. Selection media was changed every 3 days to remove non-viable cells. After 3 weeks, 200 μg/mL 0418 yielded distinct colonies while all vehicle-transfected cells were non-viable. […] Aβ(1-40) levels in cell culture media from SY5YAPP751 cells treated for 18 h with the aforementioned metabolic insults in the presence or absence of Leptin, were determined using the Human βAmyloid 1-40 ELISA kit (Invitrogen; Carlsbad, Calif.), and phospho- and total tau levels in RASY5Y lysates were determined using the Human Tau pSer396, pThr231 and Total Tau ELISA kits (Invitrogen) according to manufacturer's specific instructions. Aβ(1-40), phosho- and total tau levels were calculated from a standard curve developed with OD at 450 nm using 8 serial dilutions of known concentration. […]

Row | Compound | effect of lipid insult on tau phosphorylation (pTau231, pTau396) [1] | effect of lipid insult on AMPK activity ([2]; cholesterol 27.5 μg/mL, no Leptin) | reduction of body weight [3] [%] | SIRT activity under lipid insult with Leptin [4] | cell viability under lipid insult, low dose Leptin ([5]; Leptin 10 ng/mL, 18 h, with ceramide, cholesterol or oleic acid, FIG. 1) | cell viability under lipid insult, moderate dose Leptin ([5]; Leptin 100 ng/mL, 18 h, with ceramide, cholesterol or oleic acid, FIG. 1) | cell viability under lipid insult, high dose Leptin ([5]; Leptin 1000 ng/mL, versus 100 ng/mL group, data not shown) | tau hyperphosphorylation under lipid insult with Leptin ([1]; Leptin 100 ng/mL simultaneous treatment, oleic acid insult (far right group)) | AMPK activity under lipid insult with Leptin ([2]; Leptin 100 ng/mL, with ceramide, cholesterol or oleic acid) | amount of Aβ secreted into the medium [6] | cognitive performance [7] | tau phosphorylation and Aβ production [7] | extracellular Aβ(1-40) levels under lipid insult with Leptin [8]
1 | CC(C)CCC[C@@H](C)[C@H]1CC[C@H]2[C@@H]3CC=C4C[C@@H](O)CC[C@]4(C)[C@H]3CC[C@]12C [Cholesterol, cholesterol, reference compound] | induced significant (p<0.05) increases in tau phosphorylation at either epitope | significantly (p<0.05) suppress | – | – | – | – | – | – | – | – | – | – | –
2 | CCCCCCCC/C=C\CCCCCCCC(=O)O [Oleic Acid, oleic acid] | induced significant (p<0.05) increases in tau phosphorylation at either epitope | – | – | – | – | – | – | – | – | – | – | – | –
3 | Leptin: recombinant human Leptin purchased from Sigma-Aldrich; adipocyte-derived helical protein hormone | – | – | 30 | significantly (p<0.05) boost both AMPK and SIRT activity in response to all lipid insults, with the exception of ceramide for SIRT | significantly (p<0.05) improve viability only in response to the cholesterol insult | significantly (p<0.05) improved viability in response to all challenges | not significantly (p>0.05) different from the moderate group's viability | significantly (p<0.05) prevented this hyperphosphorylation | significantly (p<0.05) boost both AMPK and SIRT activity in response to all lipid insults | reduces the amount of Aβ secreted into the medium in a time- and dose-dependent fashion | improves cognitive performance | reduces both tau phosphorylation and Aβ production | significantly (p<0.05) reduced Aβ(1-40) levels as similar to control
